Reference: ChEMBL document CHEMBL5576112, “Synthesis, in silico, in vitro evaluation of furanyl- and thiophenyl-3-phenyl-1H-indole-2-carbohydrazide derivatives as tubulin inhibitors and anticancer agents” (RSC Med Chem, 2024)
Active and inactive are the calls of the source. No cut-off for these calls is given here.

Columns and labels:
NCI-H522 [1] = assay: Growth inhibition of human NCI-H522 cells measured after 48 hrs by sulforhodamine B assay; type: functional; conditions: for CC50: read-out: LC50 (the source's name)
COLO 205 [2] = assay: Growth inhibition of human COLO 205 cells measured after 48 hrs by sulforhodamine B assay; type: functional; conditions: for CC50: read-out: LC50 (the source's name)
MDA-MB-435 [3] = assay: Growth inhibition of human MDA-MB-435 cells measured after 48 hrs by sulforhodamine B assay; type: functional; conditions: for CC50: read-out: LC50 (the source's name)
SK-MEL-5 [4] = assay: Growth inhibition of human SK-MEL-5 cells measured after 48 hrs by sulforhodamine B assay; type: functional; conditions: for CC50: read-out: LC50 (the source's name)
NCI-H522 [5] = assay: Growth inhibition of human NCI-H522 cells at 10 uM measured after 48 hrs by sulforhodamine B assay; type: functional, cell-based
COLO 205 [6] = assay: Growth inhibition of human COLO 205 cells at 10 uM measured after 48 hrs by sulforhodamine B assay; type: functional, cell-based
MDA-MB-435 [7] = assay: Growth inhibition of human MDA-MB-435 cells at 10 uM measured after 48 hrs by sulforhodamine B assay; type: functional, cell-based
SK-MEL-5 [8] = assay: Growth inhibition of human SK-MEL-5 cells at 10 uM measured after 48 hrs by sulforhodamine B assay; type: functional, cell-based
Sus scrofa [9] = species: Sus scrofa; assay: Inhibition of porcine brain tubulin polymerization assessed as microtubule destabilization by measuring relative fluorescence unit at 10 uM measured at 60 secs interval for 60 mins in presence of GTP by fluorescence assay
UACC-62 [10] = assay: Growth inhibition of human UACC-62 cells measured after 48 hrs by sulforhodamine B assay; type: functional; conditions: for CC50: read-out: LC50 (the source's name)
OVCAR-8 [11] = assay: Growth inhibition of human OVCAR-8 cells measured after 48 hrs by sulforhodamine B assay; type: functional; conditions: for CC50: read-out: LC50 (the source's name)
MCF7 [12] = assay: Growth inhibition of human MCF7 cells measured after 48 hrs by sulforhodamine B assay; type: functional
K562 [13] = assay: Growth inhibition of human K562 cells measured after 48 hrs by sulforhodamine B assay; type: functional; conditions: for CC50: read-out: LC50 (the source's name)
UACC-62 [14] = assay: Growth inhibition of human UACC-62 cells at 10 uM measured after 48 hrs by sulforhodamine B assay; type: functional, cell-based
OVCAR-8 [15] = assay: Growth inhibition of human OVCAR-8 cells at 10 uM measured after 48 hrs by sulforhodamine B assay; type: functional, cell-based
MCF7 [16] = assay: Growth inhibition of human MCF7 cells at 10 uM measured after 48 hrs by sulforhodamine B assay; type: functional, cell-based
K562 [17] = assay: Growth inhibition of human K562 cells at 10 uM measured after 48 hrs by sulforhodamine B assay; type: functional, cell-based
Sus scrofa [18] = species: Sus scrofa; assay: Inhibition of porcine brain tubulin polymerization assessed as microtubule destabilization at 10 uM measured at 60 secs interval for 60 mins in presence of GTP by fluorescence assay

| Structure (SMILES) | growth inhibition (GI) (NCI-H522 [5]) | growth inhibition (GI) (COLO 205 [6]) | growth inhibition (GI) (MDA-MB-435 [7]) | growth inhibition (GI) (SK-MEL-5 [8]) | CC50 (NCI-H522 [1]) [µM] | GI50 (NCI-H522 [1]) [µM] | GI50 (COLO 205 [2]) [µM] | CC50 (COLO 205 [2]) [µM] | GI50 (MDA-MB-435 [3]) [µM] | CC50 (MDA-MB-435 [3]) [µM] | GI50 (SK-MEL-5 [4]) [µM] | CC50 (SK-MEL-5 [4]) [µM] | GI50 (UACC-62 [10]) [µM] | CC50 (UACC-62 [10]) [µM] | GI50 (OVCAR-8 [11]) [µM] | CC50 (OVCAR-8 [11]) [µM] | GI50 (MCF7 [12]) [µM] | LC50 (MCF7 [12]) [µM] | GI50 (K562 [13]) [µM] | CC50 (K562 [13]) [µM] | further results |
| --- | --- | --- | --- | --- | --- | --- | --- | --- | --- | --- | --- | --- | --- | --- | --- | --- | --- | --- | --- | --- | --- |
| O=C(N/N=C/c1ccc(-c2ccc(O)cc2)s1)c1[nH]c2ccc(Br)cc2c1-c1ccccc1 | Active | Active | Active | Active |  |  |  |  |  |  |  |  |  |  |  |  |  |  |  |  | growth inhibition (GI) (NCI-H522 [1]): Active; growth inhibition (GI) (COLO 205 [2]): Active; growth inhibition (GI) (MDA-MB-435 [3]): Active; growth inhibition (GI) (SK-MEL-5 [4]): Active |
| O=C(N/N=C/c1ccc(-c2cccc([N+](=O)[O-])c2)o1)c1[nH]c2ccc(Br)cc2c1-c1ccccc1 | Active |  |  |  | 9.13 |  |  |  |  |  |  |  |  |  |  |  |  |  |  |  |  |
| O=C(N/N=C/c1ccc([N+](=O)[O-])o1)c1[nH]c2ccc(Br)cc2c1-c1ccccc1 | Active | Active | Active | Active | 5.39 | 0.0374 | 0.233 | 1.79 | 0.0808 | 0.734 | 0.213 | 2.62 | 0.0731 | 5.29 | 0.184 | 4.19 | 0.0443 | > 100 | 0.054 | > 100 | RFU (Sus scrofa [9]): 45 a.u.; growth inhibition (GI) (UACC-62 [14]): Active; growth inhibition (GI) (OVCAR-8 [15]): Active; growth inhibition (GI) (MCF7 [16]): Active; growth inhibition (GI) (K562 [17]): Active |
| O=C(N/N=C/c1ccco1)c1[nH]c2ccc(Br)cc2c1-c1ccccc1 | Active | Active | Active | Active | > 100 | 0.0239 | 0.113 | > 100 | 0.034 | > 100 | 0.0887 | > 100 | 0.0394 | > 100 | 0.121 | > 100 | 0.0414 | > 100 | 0.0407 | > 100 | RFU (Sus scrofa [9]): 50 a.u.; growth inhibition (GI) (UACC-62 [14]): Active; growth inhibition (GI) (OVCAR-8 [15]): Active; growth inhibition (GI) (MCF7 [16]): Active; growth inhibition (GI) (K562 [17]): Active |
| O=C(N/N=C/c1ccsc1)c1[nH]c2ccc(Br)cc2c1-c1ccccc1 | Active | Active | Active | Active | > 10 | > 0.1 | > 0.1 | > 10 | 0.0789 | > 10 | > 0.1 | > 10 |  |  |  |  |  |  |  |  |  |
| N#Cc1ccc(/C=N/NC(=O)c2[nH]c3ccc(Br)cc3c2-c2ccccc2)o1 | Active | Active | Active | Active | > 100 | 0.0826 | 0.198 | 0.692 | 0.186 | > 100 | 0.231 | > 100 | 0.462 | > 100 | 0.209 | > 100 | 0.324 | > 100 | 0.069 | > 100 | inhibition (Sus scrofa [18]): inactive; growth inhibition (GI) (UACC-62 [14]): Active; growth inhibition (GI) (OVCAR-8 [15]): Active; growth inhibition (GI) (MCF7 [16]): Active; growth inhibition (GI) (K562 [17]): Active |
| O=C(O)c1ccc(-c2ccc(/C=N/NC(=O)c3[nH]c4ccc(Br)cc4c3-c3ccccc3)s2)cc1 | Active | Active | Active | Active |  |  |  |  |  |  |  |  |  |  |  |  |  |  |  |  | growth inhibition (GI) (NCI-H522 [1]): Active; growth inhibition (GI) (COLO 205 [2]): Active; growth inhibition (GI) (MDA-MB-435 [3]): Active; growth inhibition (GI) (SK-MEL-5 [4]): Active |
